Common to all, as to assay: squalene rescue assay
Format in all cases: cell-based

Assay [1] has as its system C. albicans SC5314. The settings on record: Candida albicans, SC5314, read-out: EC50 (squalene concentration rescuing 50% of growth). How it is done: (§1) Squalene rescue assays were performed as described previously ([7]). […] After incubation at 35°C for 24 h (C. albicans), 48 h (A. fumigatus), or 72 h (C. neoformans), OD600 was measured in a BioTek ELx800 plate reader.

Assay [2] concerns A. fumigatus ATCC 204305. The settings on record: Aspergillus fumigatus, ATCC204305, read-out: EC50 (squalene concentration rescuing 50% of growth). How it is done:
as §1

Assay [3] concerns C. neoformans H99. The settings on record: Cryptococcus neoformans, H99, read-out: EC50 (squalene concentration rescuing 50% of growth). On the procedure: as §1

Molecules are shown by their SMILES. Converted amounts (≈) assume the structure as drawn.

`CC(C)=CCC/C(C)=C/CC/C(C)=C/CC/C=C(\C)CC/C=C(\C)CCC=C(C)C` [squalene]: the EC50 in assay [1] came to 12.4 µg/mL (≈ 30.3 µM); in assay [2], 23.3 µg/mL (≈ 56.7 µM); in assay [3], 2.98 µg/mL (≈ 7.25 µM).
